Results published in patent US11376214B2, “Compositions and methods for treatment of ocular diseases” (KIORA PHARMACEUTICALS, INC., priority 2019, dated 2022).
Where a name gives a salt, the structure may show the parent alone. Read-outs that look alike come from different tables or passages of the source. Each block holds one compound with its values, some of them ahead of it.

Assays:
[1] = Rheological testing (parallel plate rheometer): viscosity and shear-thinning; type: physicochemical; conditions: antibiotic 1 mg/ml incorporated in hydrogel (CMHA-S about 7.5 mg/ml)
Experimental: Thiol-modified carboxymethyl HA (CMHA-S) was synthesized as described in Lawyer et al. and Wendling et al., with a thiol modification of 0.1, 0.2, 0.4, or 0.7 μmol thiol/mg. Hydrogels were created by dissolving CMHA-S in phosphate-buffered saline (PBS; pH 7.4). The CMHA-S was disulfide crosslinked under continuous mixing with the addition of sodium hypochlorite. Rheological testing was performed using a parallel plate format rheometer with a 25 mm-diameter stainless steel geometry. Samples (5-6 ml) of hydrogel were placed in a 35 mm Petri dish, and the geometry was lowered to a gap of 5 mm. To determine viscosity and shear-thinning, the shear rate was varied from 0.1 to 10 Hz. A decreasing viscosity as shear rate increases indicates shear-thinning behavior. Table 1 provides the thiol modification of the CMHA-S, concentration of CMHA-S, and resultant viscosity of the hydrogel (at 2.5 Hz) for 4 hydrogel formulations.
(§1) Viscosity, pH, and refractive index (RI) were measured for hydrogels described in Example 2 with and without antibiotic incorporated. […] Viscosity was determined as described in Example 1. RI was measured with a refractometer and pH was measured with a pH meter.

[2] = Refractive index by refractometer; type: physicochemical; conditions: antibiotic 1 mg/ml incorporated in hydrogel (CMHA-S about 7.5 mg/ml)
Experimental: as §1

[3] = pH by pH meter; type: physicochemical; conditions: antibiotic 1 mg/ml incorporated in hydrogel (CMHA-S about 7.5 mg/ml)
Experimental: as §1

[4] = Release of antibiotic from hydrogel or PBS in dialysis chamber; type: physicochemical
Experimental: For this assessment, a 0.5 ml sample of hydrogel plus drug or PBS plus drug was placed into a medi-dialysis chamber, and the chamber was placed in a beaker containing 100 ml of PBS. The remaining amount of drug in the dialysis chamber was monitored using UV spectroscopy at various time points. […] The release was monitored as described above. […] Another drug release study was performed, with Moxi-FB and Besi-HCl as the antibiotics, a hydrogel with 7.5 mg/ml CMHA-S, and the antibiotics incorporated at 10 mg/ml. For this study, the samples were placed in a dialysis chamber that was then placed in a tube that contained 10 ml of PBS. The dialysis chamber was transferred to a new tube at each time point, and the dialysate was analyzed by UV absorption (rather than the material inside the dialysis chamber), and the released amount of drug was calculated (rather than the amount remaining). In this experimental set-up, drug release from the hydrogel was slower than from PBS (FIGS. 4A and 4B). Despite the poor water solubility of Besi-HCl compared to Moxi-FB, Besi-HCl was still released from the hydrogel.

[5] = system: Pseudomonas aeruginosa; experiment: Zone of inhibition (ZOI) study of dialysate samples; type: cell-based; conditions: P. aeruginosa
Experimental: (§2) To verify the efficacy of a drug in the hydrogel, zone of inhibition (ZOI) studies were conducted. […] Samples of the dialysate were collected at 0, 1, 2, 4, and 8 hours. Filter paper disks were soaked in each sample, placed on a bacteria-inoculated plate, and the ZOIs were compared between PBS group and hydrogel group.

[6] = system: Staphylococcus aureus; experiment: as above; type: cell-based; conditions: S. aureus
Experimental: as §2

[7] = cited from earlier work
[8] = released from PBS (1 mg/ml), dialysate at 4 hrs
[9] = released from PBS (1 mg/ml), dialysate at 8 hrs
[10] = released from hydrogel (CMHA-S 7.5 mg/ml, drug 1 mg/ml), dialysate at 8 hrs

Viscosity at 2.5 Hz ([1]; hydrochloride): 1.6 Pa · s
Refractive index ([2]; hydrochloride): 1.3355
pH ([3]; hydrochloride): 7.0
drug release from hydrogel compared with PBS ([4]; drug 1 mg/ml in hydrogel #4 (CMHA-S 4.0 mg/ml)): slightly slower
time within which release was complete ([4]; drug 1 mg/ml in hydrogel #4 (CMHA-S 4.0 mg/ml), medi-dialysis chamber in 100 ml PBS): ≤ 4 h
drug release from hydrogel compared with PBS ([4]; drug 1 mg/ml in hydrogel (CMHA-S about 7.5 mg/ml), medi-dialysis chamber in 100 ml PBS): only slightly slowed down
Compound: COc1c(N2C[C@@H]3CCCN[C@@H]3C2)c(F)cc2c(=O)c(C(=O)O)cn(C3CC3)c12 [Moxi-HCl, moxifloxacin hydrochloride]
ZOI [5, 8]: 24.7 ± 2.8 mm
ZOI [5, 9]: 20.5 ± 1.8 mm
ZOI ([5]; released from hydrogel (CMHA-S 7.5 mg/ml, drug 1 mg/ml), dialysate at 1 hrs): 28.7 ± 0.3 mm
ZOI ([5]; released from hydrogel (CMHA-S 7.5 mg/ml, drug 1 mg/ml), dialysate at 4 hrs): 26.8 ± 1.4 mm
ZOI [5, 10]: 26.5 ± 3.2 mm
ZOI ([6]; released from PBS (1 mg/ml), dialysate at 2 hrs): 28.3 ± 1.0 mm
ZOI [6, 8]: 26.5 ± 2.5 mm
ZOI [6, 9]: 23.5 ± 2.8 mm
ZOI [6, 10]: 27.2 ± 1.3 mm
solubility in water ([7]; hydrochloride): ~20 mg/mL

Viscosity at 2.5 Hz [1]: 1.4 Pa · s
Refractive index [2]: 1.3355
pH [3]: 8.6
Compound: NC[C@H]1O[C@H](O[C@H]2[C@H](O)[C@@H](O[C@H]3O[C@H](CO)[C@@H](O)[C@H](N)[C@H]3O)[C@H](N)C[C@@H]2N)[C@H](N)C[C@@H]1O [Tobramycin, tobramycin]
solubility in water [7]: > 50 mg/mL

Compound: COc1c(N2C[C@@H]3CCCN[C@@H]3C2)c(F)cc2c(=O)c(C(=O)O)cn(C3CC3)c12 [Moxi-FB, moxifloxacin]
solubility in water [7]: about 1 mg/ml

drug release from hydrogel compared with PBS ([4]; antibiotic 10 mg/ml in hydrogel with 7.5 mg/ml CMHA-S, dialysis chamber in 10 ml PBS, new tube at each time point, dialysate UV): slower
Compound: N[C@@H]1CCCCN(c2c(F)cc3c(=O)c(C(=O)O)cn(C4CC4)c3c2Cl)C1 [Besi-HCl, besifloxacin hydrochloride]
solubility in water [7]: about 1 mg/ml
